In patent US4889848A, “Tricyclic pyridine derivatives” (Hoffmann-La Roche Inc., priority 1988, dated 1989):
Like-named read-outs stand apart in the source and are kept apart here.

How the values were obtained:
[1] = acute toxicity, single oral administration to mice; details: mouse, in vivo, p.o.
Description: (§1) In this animal test, the compound under investigation is adminstered orally or intravenously to female rats and 30 minutes later there are administered intraperitioneally 120 mg/kg of pentetrazole, which causes emprosthotonus and tonic stretchings of the fore and/or hind limbs in unprotected animals 1-4 minutes after the injection. Ten (10) experimental animals are used per dosage of test substance. After counting the protected experimental animals, the ED50 is determined according to the […]. The ED50 is that dosage which protects 50% of the experimental animals from the spasmodic seizures caused by pentetrazole. The results which have been obtained with representative members of the class of compound defined by formula I in the experiment described previously are compiled in the following Table. Moreover, the Table contains data concerning the acute toxicity (LD50) of some of the compounds of formula I in mg/kg in the case of single oral administration to mice.

[2] = test system: spasmodic seizures caused by pentetrazole; experiment: antipentetrazole test (protection from pentetrazole-induced seizures); assay type: in vivo, female rats; details: Rattus norvegicus, po, read-out: ED50 (dosage which protects 50% of the experimental animals from the spasmodic seizures caused by pentetrazole)
Description: As mentioned earlier, the compounds of formula I have valuable pharmacological properties.
as §1

[3] = female rats, compound given 30 minutes before 120 mg/kg pentetrazole intraperitoneally, 10 animals per dosage

| Compound | LD50 [1] | ED50 [2] | ED50 [2, 3] |
| --- | --- | --- | --- |
| CO[C@@H]1CCN(C(=O)c2cc(-c3ccccc3)c(=O)n3ccc4ccsc4c23)C1 [R, (R)-3-methoxy-1-[(7-oxo-8-phenyl-7H-thieno[2,3-a]-quinolizin-10-yl)carbonyl]pyrrolidine] | 1250 mg/kg | 0.17 mg/kg |  |
| CO[C@H]1CCN(C(=O)c2cc(-c3ccccc3)c(=O)n3ccc4ccsc4c23)C1 [S, (S)-3-methoxy-1-[(7-oxo-8-phenyl-7H-thieno[2,3-a]-quinolizin-10-yl)carbonyl]pyrrolidine] | 5000 mg/kg | 0.87 mg/kg |  |
| COC1CCN(C(=O)c2cc(-c3ccccc3)c(=O)n3c2-c2cc(Cl)ccc2CC3)CC1 [K] | > 5000 mg/kg | 0.56 mg/kg |  |
| COCCNC(=O)c1cc(-c2ccccc2)c(=O)n2c1-c1cc(Cl)ccc1CC2 [Compound A, 10-Chloro-6,7-dihydro-N-(2-methoxyethyl)-4-oxo-3-phenyl-4H-benzo[a]quinolizine-1-carboxamide] | > 5000 mg/kg | 2.6 mg/kg |  |
| COC[C@H]1CCCN1C(=O)c1cc(-c2ccccc2)c(=O)n2ccc3ccsc3c12 [O, (R)-2-(methoxymethyl)-1-[(7-oxo-8-phenyl-7H-thieno[2,3-a]quinolizin-10-yl)carbonyl]pyrrolidine] | 5000 mg/kg | 0.49 mg/kg |  |
| O=C(c1cc(-c2ccccc2)c(=O)n2c1-c1cc(Cl)ccc1CC2)N1CCC(O)CC1 [B, 1-[(10-Chloro-6,7-dihydro-4-oxo-3-phenyl-4H-benzo[a]quinolizin-1-yl)carbonyl]-4-piperidinol] | > 5000 mg/kg |  | 5.4 mg/kg |
| COC1CCN(C(=O)c2cc(-c3ccccc3)c(=O)n3c2-c2sccc2CC3)C1 (centres unmarked) [U, 1-[(4,5-Dihydro-7-oxo-8-phenyl-7H-thieno[2,3-a]quinolizin-10-yl)carbonyl]-3-methoxypyrrolidine] | > 5000 mg/kg | 2.7 mg/kg |  |
| CCOC1CCN(C(=O)c2cc(-c3ccccc3)c(=O)n3c2-c2cc(Cl)ccc2CC3)C1 (centres unmarked) [Q, 1-[(10-Chloro-6,7-dihydro-4-oxo-3-phenyl-4H-benzo[a]quinolizin-1-yl)carbonyl]-3-ethoxypyrrolidine] | > 5000 mg/kg | 3.1 mg/kg |  |
| COC[C@@H]1CCCN1C(=O)c1cc(-c2ccccc2)c(=O)n2ccc3ccc(Cl)cc3c12 [X, (S)-1-[(10-Chloro-4-oxo-3-phenyl-4H-benzo[a]quinolizin-1-yl)carbonyl]-2-(methoxymethyl)pyrrolidine] | 5000 mg/kg | 1.1 mg/kg |  |
| O=C(c1cc(-c2ccccc2)c(=O)n2ccc3ccc(Cl)cc3c12)N1CCC[C@H]1CO [H, (S)-1-[(10-chloro-4-oxo-3-phenyl-4H-benzo[a]quinolizin-1-yl)carbonyl]-2-pyrrolidinemethanol] | > 3000 mg/kg | 1.3 mg/kg |  |
| COC1CN(C(=O)c2cc(-c3ccccc3)c(=O)n3ccc4ccsc4c23)C1 [V, 3-Methoxy-1-[(7-oxo-8-phenyl-7H-thieno[2,3-a]quinolizin-10-yl)carbonyl]azetidine] | > 5000 mg/kg | 0.13 mg/kg |  |
| COC[C@@H]1CCCN1C(=O)c1cc(-c2ccccc2)c(=O)n2c1-c1cc(Cl)ccc1CC2 [T, (S)-1-[(10-Chloro-6,7-dihydro-4-oxo-3-phenyl-4H-benzo[a]quinolizin-1-yl)carbonyl]-2-(methoxymethyl)pyrrolidine] | > 5000 mg/kg | 3.8 mg/kg |  |
| O=C(OCc1cc(-c2ccccc2)c(=O)n2c1-c1sccc1CC2)N1CCOCC1 [C, (4,5-Dihydro-7-oxo-8-phenyl-7H-thieno[2,3-a]quinolizin-10-yl)methyl 4-morpholinecarboxylate] |  | 15.9 mg/kg |  |
| C[C@@H]1CN(C(=O)c2cc(-c3ccccc3)c(=O)n3c2-c2sccc2CC3)C[C@H](C)O1 [I, cis-4-[(4,5-dihydro-7-oxo-8-phenyl-7H-thieno[2,3-a]-quinolizin-10-yl)carbonyl]-2,6-dimethylmorpholine] | > 5000 mg/kg |  | 5.9 mg/kg |
| CC1CN(C(=O)c2cc(-c3ccccc3)c(=O)n3c2-c2cc(Cl)ccc2CC3)CC(C)O1 (centres unmarked) [D, 4-[(6,7-Dihydro-4-oxo-3-phenyl-10-chloro-4H-benzo[a]quinolizin-1-yl)carbonyl]-2,6-dimethylmorpholine] | > 5000 mg/kg | 1.2 mg/kg |  |
| COCCN(C)C(=O)c1cc(-c2ccccc2)c(=O)n2ccc3ccsc3c12 [N, N-(2-Methoxyethyl)-N-methyl-7-oxo-8-phenyl-7H-thieno[2,3-a]quinolizine-10-carboxamide] | 625 mg/kg | 0.97 mg/kg |  |
| CCN(CCOC)C(=O)c1cc(-c2ccccc2)c(=O)n2ccc3ccsc3c12 [M, N-ethyl-N-(2-methoxyethyl)-7-oxo-8-phenyl-7H-thieno[2,3-a]quinolizine-10-carboxamide] | 5000 mg/kg | 5 mg/kg |  |
| O=C(c1cc(-c2ccccc2)c(=O)n2ccc3ccsc3c12)N1CCC[C@H]1CO [E, (S)-1-[(7-oxo-8-phenyl-7H-thieno[2,3-a]quinolizin-10-yl)carbonyl]-2-pyrrolidinemethanol] | 625 mg/kg | 3.5 mg/kg |  |
| COC1CCN(C(=O)c2cc(-c3ccccc3)c(=O)n3ccc4ccc(Cl)cc4c23)CC1 [L, 1-[(10-Chloro-3-phenyl-4-oxo-4H-benzo[a]quinolizin-1-yl)carbonyl]-4-methoxypiperidine] | > 5000 mg/kg | 0.22 mg/kg |  |
| COC1CCN(C(=O)c2cc(-c3ccccc3)c(=O)n3c2-c2cc(Cl)ccc2CC3)C1 (centres unmarked) [P, 1-[(10-Chloro-6,7-dihydro-4-oxo-3-phenyl-4H-benzo[a]quinolizin-1-yl)carbonyl]-3-methoxypyrrolidine] | > 5000 mg/kg | 0.31 mg/kg |  |
| COC[C@H]1CCCN1C(=O)c1cc(-c2ccccc2)c(=O)n2ccc3ccc(Cl)cc3c12 [Y, (R)-1-[(10-Chloro-4-oxo-3-phenyl-4H-benzo[a]quinolizin-1-yl)carbonyl]-2-(methoxymethyl)pyrrolidine] | 5000 mg/kg | 0.41 mg/kg |  |
| COC1CCN(C(=O)c2cc(-c3ccccc3)c(=O)n3ccc4ccc(Cl)cc4c23)C1 (centres unmarked) [G, 1-[(10-chloro-4-oxo-3-phenyl-4H-benzo[a]quinolizin-1-yl)carbonyl]-3-methoxypyrrolidine] | 2500 mg/kg | 0.12 mg/kg |  |
| COC[C@@H]1CCCN1C(=O)c1cc(-c2ccccc2)c(=O)n2ccc3ccsc3c12 [F, (S)-2-methoxymethyl-1-[(7-oxo-8-phenyl-7H-thieno[2,3-a]quinolizin-10-yl)carbonyl]pyrrolidine] | 5000 mg/kg | 2.8 mg/kg |  |
| O=C(c1cc(-c2ccccc2)c(=O)n2ccc3ccc(Cl)cc3c12)N1CCC[C@@H]1CO [W, (R)-1-[(10-Chloro-4-oxo-3-phenyl-4H-benzo[a]quinolizin-1-yl)carbonyl]-2-pyrrolidinemethanol] | > 3000 mg/kg | 0.51 mg/kg |  |
